In patent US20190059378A1, “SYNERGISTIC FUNGICIDAL COMPOSITION FOR CONTROLLING PLANT DISEASES” (Sumitomo Chemical Company, Limited, priority 2016, published 2019):

What was measured:
[1] = tested on: Septoria leaf blotch (Mycosphaerella graminicola); assay: Test Example 3: growth of Septoria leaf blotch in YBG medium in microtiter plate (absorbance at 550 nm); format: cell-based; details: single use, 18° C., four days
Protocol: Each of the present compound 1-1 or the present compound 2 was dissolved into dimethyl sulfoxide such that each concentration of these compounds was adjusted to one hundred fifty times as much as the concentration indicated in the below-mentioned Table 3. The resultant agent solution was dispensed into each microtiter plate (with 96 wells) in 1 μl portion thereof per well. […] The plate was cultivated at 18° C. for four days, thereby allowing Septoria leaf blotch (Mycosphaerella graminicola) to undergo proliferation, and the absorbance at 550 nm of each well of the microtiter plate was then measured to examine a degree of growth of Septoria leaf blotch (hereinafter referred to as “treated group”).
Whereas, Septoria leaf blotch was proliferated similarly to the case of the treated group except that dimethyl sulfoxide was used instead of the agent solution, and the degree of the growth was examined (hereinafter referred to as “untreated group”). The efficacy was calculated from each of the obtained degree of growth of the treated group and the untreated group respectively by the following “Equation 1”. […]

[2] = tested on: Brown rust (Puccinia recondita); assay: Test Example 4: foliar spray on wheat, Brown rust lesion area; format: in vivo, Puccinia recondita on wheat (cultivar. Shirogane); details: single use, foliar spray one day before inoculation
Protocol: Five(5) parts of the present compound 1-1, 35 parts of a mixture of white carbon and ammonium polyoxyethylene alkyl ether sulfate (the weight ratio of 1:1) and 55 parts of water were mixed, and the mixture was then finely-ground by a wet grinding method to obtain a flowable comprising the present compound 1-1. Separately, the flowable comprising the present compound 2 was prepared according to the above-mentioned similar method except that the present compound 2 was used instead of the present compound 1-1.
Each of the flowable comprising the present compound 1-1 and the flowable comprising the present compound 2 was diluted with water and if necessary, the resultant dilute solutions were mixed each other such that each concentration of the respective compounds in the dilution solution was adjusted to the concentration indicated in Table 4, to prepare the dilution solutions, respectively.
A plastic pot was filled with soil, and thereto wheat (cultivar. Shirogane) was seeded, and the plants were grown in a greenhouse for ten days. The above-mentioned dilution solutions were sprayed to foliar parts so as to adhere adequately onto the surfaces of leaves of the above wheats. After spraying the dilute solution, the plants were air-dried, and one day after the application, an aqueous suspension of uredospores of Brown rust (Puccinia recondita) was inoculated by spraying thereto. After the inoculation, the plants were placed at 27° C. under humid condition for one day, and were then cultivated under lighting for ten days, and a lesion area was examined (hereinafter referred to as “lesion area of treated group”).
Whereas, wheats were cultivated similarly to the treated group except that no foliage application of the above-mentioned agent solution was done, and Brown rust were inoculated, and the lesion area thereof was examined (hereinafter referred to as “lesion area of the untreated group”).
From each of the lesion area of the treated group and the untreated group, respectively, the efficacy of the treated group was calculated by the following Equation 2. […]

| SMILES | Efficacy (%) ([1]; concentration in medium 0.005 ppm) | Efficacy (%) ([2]; concentration in agent solution 0.0001 ppm) | Efficacy (%) ([2]; concentration in agent solution 0.01 ppm) | Efficacy (%) ([1]; concentration in medium 0.05 ppm) | Efficacy (%) ([2]; concentration in agent solution 0.001 ppm) |
| --- | --- | --- | --- | --- | --- |
| Cc1nnc(Cl)c(-c2c(F)cccc2F)c1-c1ccccc1 [Present compound 1-1] | 4% | 20% | 31% |  |  |
| CC1CC(C)(C)c2c(F)ccc(NC(=O)c3cn(C)nc3C(F)F)c21 (centres unmarked) [Present compound 2] |  |  |  | 55% | 15% |
